# In ChEMBL document CHEMBL1681651, “A broad spectrum anticancer nucleoside with selective toxicity against human colon cells in vitro” (2011):
# Key:
# Format in all cases: functional
# [1] = Growth inhibition of human […] cells assessed as cell growth at 1 uM after 48 hrs by SRB assay; details: read-out: Activity
# U-251 [2] = experiment: Growth inhibition of human U251 cells assessed as cell growth at 1 uM after 48 hrs by SRB assay; details: U-251, 48 h, read-out: Activity
# OVCAR-5 [3] = experiment: Growth inhibition of human OVCAR5 cells assessed as cell growth at 1 uM after 48 hrs by SRB assay; details: OVCAR-5, 48 h, read-out: Activity
# NCI-H460 = experiment: Growth inhibition of human NCI-H460 cells assessed as cell growth at 1 mM after 48 hrs by SRB assay; details: NCI-H460, 48 h, read-out: Activity
# HCT-15 = experiment: Growth inhibition of human HCT15 cells assessed as cell growth at 10 uM after 48 hrs by SRB assay; details: HCT-15, 48 h, read-out: Activity
# A549 = experiment: Growth inhibition of human A549 cells assessed as cell growth at 10 uM after 48 hrs by SRB assay; details: A549, 48 h, read-out: Activity
# MDA-MB-231 = experiment: Growth inhibition of human MDA-MB-231 cells assessed as cell growth at 1 mM after 48 hrs by SRB assay; details: MDA-MB-231, 48 h, read-out: Activity
# ACHN [4] = experiment: Growth inhibition of human ACHN cells assessed as cell growth at 0.1 uM after 48 hrs by SRB assay; details: read-out: Activity
# COLO 205 = experiment: Growth inhibition of human COLO205 cells after 48 hrs by […] growth inhibition assay; details: COLO 205, 48 h
# OVCAR-5 [5] = experiment: Growth inhibition of human OVCAR5 cells assessed as cell growth at 10 uM after 48 hrs by SRB assay; details: OVCAR-5, 48 h, read-out: Activity
# UACC-257 = experiment: Growth inhibition of human UACC257 cells assessed as cell growth at 1 mM after 48 hrs by SRB assay; details: UACC-257, 48 h, read-out: Activity
# SN12C = experiment: Growth inhibition of human SN12C cells assessed as cell growth at 10 uM after 48 hrs by SRB assay; details: read-out: Activity
# HL-60(TB) = experiment: Growth inhibition of human HL-60(TB) cells assessed as cell growth at 10 uM after 48 hrs by SRB assay; details: HL-60, 48 h, read-out: Activity
# SNB-75 = experiment: Growth inhibition of human SNB75 cells assessed as cell growth at 10 uM after 48 hrs by SRB assay; details: SNB-75, 48 h, read-out: Activity
# SNB-19 = experiment: Growth inhibition of human SNB19 cells assessed as cell growth at 10 uM after 48 hrs by SRB assay; details: SNB-19, 48 h, read-out: Activity
# SK-MEL-2 [6] = experiment: Growth inhibition of human SK-MEL-2 cells assessed as cell growth at 10 uM after 48 hrs by SRB assay; details: SK-MEL-2, 48 h, read-out: Activity
# HT-29 = experiment: Growth inhibition of human HT-29 cells assessed as cell growth at 100 uM after 48 hrs by SRB assay; details: HT-29, 48 h, read-out: Activity
# NCI-H23 = experiment: Growth inhibition of human NCI-H23 cells assessed as cell growth at 10 uM after 48 hrs by SRB assay; details: NCI-H23, 48 h, read-out: Activity
# LOX IMVI = experiment: Growth inhibition of human LOXIMVI cells assessed as cell growth at 100 uM after 48 hrs by SRB assay; details: read-out: Activity
# HCT-116 = experiment: Growth inhibition of human HCT116 cells assessed as cell growth at 0.1 uM after 48 hrs by SRB assay; details: HCT-116, 48 h, read-out: Activity
# SF-539 [7] = experiment: Growth inhibition of human SF539 cells after 48 hrs by […] growth inhibition assay; details: SF-539, 48 h
# NCI-H522 = experiment: Growth inhibition of human NCI-H522 cells assessed as cell growth at 1 mM after 48 hrs by SRB assay; details: NCI-H522, 48 h, read-out: Activity
# OVCAR-8 = experiment: Growth inhibition of human OVCAR8 cells assessed as cell growth at 1 uM after 48 hrs by SRB assay; details: OVCAR-8, 48 h, read-out: Activity
# NCI-H322M [8] = experiment: Growth inhibition of human NCI-H322M cells after 48 hrs by […] growth inhibition assay
# MDA-MB-435 = experiment: Growth inhibition of human MDA-MB-435 cells assessed as cell growth at 10 uM after 48 hrs by SRB assay; details: MDA-MB-435, 48 h, read-out: Activity
# CAKI-1 = experiment: Growth inhibition of human Caki1 cells assessed as cell growth at 1 uM after 48 hrs by SRB assay; details: CAKI-1, 48 h, read-out: Activity
# IGROV-1 = experiment: Growth inhibition of human IGROV1 cells assessed as cell growth at 0.1 uM after 48 hrs by SRB assay; details: IGROV-1, 48 h, read-out: Activity
# SF-539 [9] = experiment: Growth inhibition of human SF539 cells assessed as cell growth at 0.1 uM after 48 hrs by SRB assay; details: SF-539, 48 h, read-out: Activity
# NCI-H322M [10] = experiment: Growth inhibition of human NCI-H322M cells assessed as cell growth at 10 uM after 48 hrs by SRB assay; details: read-out: Activity
# SK-MEL-2 [11] = experiment: Growth inhibition of human SK-MEL-2 cells assessed as cell growth at 0.1 uM after 48 hrs by SRB assay; details: SK-MEL-2, 48 h, read-out: Activity
# UO-31 = experiment: Growth inhibition of human UO31 cells assessed as cell growth at 0.1 uM after 48 hrs by SRB assay; details: UO-31, 48 h, read-out: Activity
# HOP-92 = experiment: Growth inhibition of human HOP92 cells after 48 hrs by […] growth inhibition assay; details: HOP-92, 48 h
# SK-MEL-5 = experiment: Growth inhibition of human SK-MEL-5 cells assessed as cell growth at 0.1 uM after 48 hrs by SRB assay; details: SK-MEL-5, 48 h, read-out: Activity
# ACHN [12] = experiment: Growth inhibition of human ACHN cells assessed as cell growth at 100 uM after 48 hrs by SRB assay; details: read-out: Activity
# U-251 [13] = experiment: Growth inhibition of human U251 cells assessed as cell growth at 1 mM after 48 hrs by SRB assay; details: U-251, 48 h, read-out: Activity
# [14] = read-out: LC50 (the source's name)
# [15] = read-out: pLC50 (the source's name) (converted)
compound,measurement,setting,value
CNC(=O)NC[C@H]1O[C@@H](n2cnc3c(NC(=O)Nc4ccccc4)ncnc32)[C@H](O[Si](C)(C)C(C)(C)C)[C@@H]1CC(=O)N(C)OC,growth at 1 µM,[1],91%
same,growth at 1 µM,U-251 [2],101%
same,growth at 1 µM,OVCAR-5 [3],98%
same,growth at 1000 µM,NCI-H460,25%
same,growth at 10 µM,HCT-15,93%
same,growth at 10 µM,A549,97%
same,growth at 1000 µM,MDA-MB-231,5%
same,growth at 0.1 µM,ACHN [4],107%
same,GI50,COLO 205; read-out: GI50,12.3 µM
same,CC50,COLO 205; [14],> 100 µM
same,TGI,COLO 205; read-out: TGI,> 100 µM
same,GI50,COLO 205; read-out: pGI50 (converted),12.3 µM
same,CC50,COLO 205; [15],> 100 µM
same,TGI,COLO 205; read-out: pTGI (converted),> 100 µM
same,growth at 10 µM,OVCAR-5 [5],92%
same,growth at 1000 µM,UACC-257,22%
same,growth at 10 µM,SN12C,96%
same,growth at 10 µM,HL-60(TB),84%
same,growth at 10 µM,SNB-75,84%
same,growth at 10 µM,SNB-19,83%
same,growth at 10 µM,SK-MEL-2 [6],92%
same,growth at 100 µM,HT-29,32%
same,growth at 10 µM,NCI-H23,99%
same,growth at 100 µM,LOX IMVI,43%
same,growth at 0.1 µM,HCT-116,93%
same,GI50,SF-539 [7]; read-out: GI50,22.3 µM
same,CC50,SF-539 [7]; [14],> 100 µM
same,TGI,SF-539 [7]; read-out: TGI,> 100 µM
same,GI50,SF-539 [7]; read-out: pGI50 (converted),22.4 µM
same,CC50,SF-539 [7]; [15],> 100 µM
same,TGI,SF-539 [7]; read-out: pTGI (converted),> 100 µM
same,growth at 1000 µM,NCI-H522,31%
same,growth at 1 µM,OVCAR-8,106%
same,GI50,NCI-H322M [8]; read-out: GI50,> 100 µM
same,CC50,NCI-H322M [8]; [14],> 100 µM
same,TGI,NCI-H322M [8]; read-out: TGI,> 100 µM
same,GI50,NCI-H322M [8]; read-out: pGI50 (converted),> 100 µM
same,CC50,NCI-H322M [8]; [15],> 100 µM
same,TGI,NCI-H322M [8]; read-out: pTGI,> 100 µM
same,growth at 10 µM,MDA-MB-435,98%
same,growth at 1 µM,CAKI-1,72%
same,growth at 0.1 µM,IGROV-1,89%
same,growth at 0.1 µM,SF-539 [9],96%
same,growth at 10 µM,NCI-H322M [10],102%
same,growth at 0.1 µM,SK-MEL-2 [11],85%
same,growth at 0.1 µM,UO-31,89%
same,GI50,HOP-92; read-out: GI50,2710 nM
same,CC50,HOP-92; [14],> 100 µM
same,TGI,HOP-92; read-out: TGI,24.3 µM
same,GI50,HOP-92; read-out: pGI50 (converted),2690 nM
same,CC50,HOP-92; [15],> 100 µM
same,TGI,HOP-92; read-out: pTGI (converted),24 µM
same,growth at 0.1 µM,SK-MEL-5,104%
same,growth at 100 µM,ACHN [12],55%
same,growth at 1000 µM,U-251 [13],25%
CNC(=O)OC[C@H]1O[C@@H](n2cnc3c(NC(=O)Nc4ccccc4)ncnc32)[C@H](O[Si](C)(C)C(C)(C)C)[C@@H]1O[Si](C)(C)C(C)(C)C,growth at 10 µM,HCT-15,103%
same,growth at 10 µM,A549,80.8%
same,growth at 10 µM,OVCAR-5 [5],120%
same,growth at 10 µM,SN12C,101%
same,growth at 10 µM,HL-60(TB),113%
same,growth at 10 µM,SNB-75,76.6%
same,growth at 10 µM,SNB-19,114%
same,growth at 10 µM,SK-MEL-2 [6],82.9%
same,growth at 10 µM,NCI-H23,98%
same,growth at 10 µM,MDA-MB-435,94.9%
same,growth at 10 µM,NCI-H322M [10],118%
